Reference: the supplement of paper PMC10307832

Tests used:
Test in all cases: relative viability (nuclei count vs DMSO), 5 days (fraction); higher = more cells survive
[1] = compound: Nc1nc(Nc2ccc3c(c2)CC[C@@H](N2CCCC2)CC3)nn1-c1cc2c(nn1)-c1ccccc1CCC2 [Bemcentinib] + CC(=O)c1c(C)c2cnc(Nc3ccc(N4CCNCC4)cn3)nc2n(C2CCCC2)c1=O [Palbociclib] (partner 0.5 µM)
In short: (§1)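 Nuclei were stained with Hoechst during a one-step fixation (final 0.05% Triton X-100, 1% formaldehyde, 1 ug/ml Hoechst) carried out 5 days after dosing, then counted on 4× images. The cells, lung cancer lines in 1536-well plates, had been dosed by pin tool the day after seeding with one drug alone or a fixed anchor-drug dose plus five library-drug doses (not always all listed) in √10 steps. Relative viability is the nuclei count in treated wells divided by that in vehicle wells, and each value is the median of duplicate plates.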

Bemcentinib + Foretinib = compound: Nc1nc(Nc2ccc3c(c2)CC[C@@H](N2CCCC2)CC3)nn1-c1cc2c(nn1)-c1ccccc1CCC2 [Bemcentinib] + COc1cc2c(Oc3ccc(NC(=O)C4(C(=O)Nc5ccc(F)cc5)CC4)cc3F)ccnc2cc1OCCCN1CCOCC1 [Foretinib] (partner 0.25 µM)
In short: as §1

Bemcentinib + Pictilisib = compound: Nc1nc(Nc2ccc3c(c2)CC[C@@H](N2CCCC2)CC3)nn1-c1cc2c(nn1)-c1ccccc1CCC2 [Bemcentinib] + CS(=O)(=O)N1CCN(Cc2cc3nc(-c4cccc5[nH]ncc45)nc(N4CCOCC4)c3s2)CC1 [Pictilisib] (partner 1 µM)
In short: as §1

Axitinib + OSI-027 = compound: CNC(=O)c1ccccc1Sc1ccc2c(/C=C/c3ccccn3)n[nH]c2c1 [Axitinib] + COc1cccc2cc(-c3nc([C@H]4CC[C@H](C(=O)O)CC4)n4ncnc(N)c34)[nH]c12 [OSI-027] (partner 0.5 µM)
In short: as §1

Cell Line | relative viability ([1]; first compound 0.04 µM) | relative viability ([1]; first compound 0.1265 µM) | relative viability ([1]; first compound 0.4 µM) | relative viability ([1]; first compound 1.265 µM) | relative viability ([1]; first compound 4 µM) | relative viability (Bemcentinib + Foretinib; first compound 0.04 µM) | relative viability (Bemcentinib + Foretinib; first compound 0.1265 µM) | relative viability (Bemcentinib + Foretinib; first compound 0.4 µM) | relative viability (Bemcentinib + Foretinib; first compound 1.265 µM) | relative viability (Bemcentinib + Foretinib; first compound 4 µM) | relative viability (Bemcentinib + Pictilisib; first compound 0.04 µM) | relative viability (Bemcentinib + Pictilisib; first compound 0.1265 µM) | relative viability (Bemcentinib + Pictilisib; first compound 0.4 µM) | relative viability (Bemcentinib + Pictilisib; first compound 1.265 µM) | relative viability (Bemcentinib + Pictilisib; first compound 4 µM) | relative viability (Axitinib + OSI-027; first compound 0.005 µM) | relative viability (Axitinib + OSI-027; first compound 0.01581 µM) | relative viability (Axitinib + OSI-027; first compound 0.05 µM) | relative viability (Axitinib + OSI-027; first compound 0.1581 µM) | relative viability (Axitinib + OSI-027; first compound 0.5 µM)
NCI-H1651 | 0.528 | 0.542 | 0.528 | 0.576 | 0.512 | 0.824 | 0.928 | 0.812 | 0.856 | 1.14 | 0.622 | 0.678 | 0.64 | 0.451 | 0.739 | 0.73 | 0.683 | 0.725 | 0.601 | 0.674
NCI-H1666 | 0.656 | 0.645 | 0.675 | 0.683 | 0.672 | 0.959 | 1.26 | 1.06 | 0.856 | 0.911 | 0.313 | 0.596 | 0.427 | 0.43 | 0.55 | 1.01 | 0.86 | 0.88 | 0.825 | 0.855
NCI-H1734 | 0.345 | 0.32 | 0.349 | 0.345 | 0.345 | 0.854 | 0.916 | 0.818 | 0.838 | 0.952 | 0.461 | 0.487 | 0.486 | 0.48 | 0.45 | 0.586 | 0.57 | 0.656 | 0.623 | 0.644
NCI-H1755 | 0.43 | 0.462 | 0.425 | 0.479 | 0.439 | 0.925 | 0.923 | 0.947 | 0.987 | 0.935 | 0.331 | 0.459 | 0.496 | 0.485 | 0.443 | 0.772 | 0.783 | 0.724 | 0.674 | 0.894
NCI-H1793 | 0.331 | 0.369 | 0.306 | 0.26 | 0.322 | 0.816 | 0.726 | 0.772 | – | 0.693 | 0.414 | 0.38 | 0.454 | 0.395 | 0.361 | 0.348 | 0.198 | 0.349 | 0.289 | 0.312
NCI-H1915 | 0.532 | 0.506 | 0.521 | 0.512 | 0.527 | 1.11 | 1.08 | 1.15 | 1.07 | 1.17 | 0.893 | 1.04 | 0.975 | 0.962 | 0.943 | 0.615 | 0.653 | 0.65 | 0.64 | 0.756
NCI-H1944 | 0.324 | 0.379 | 0.304 | 0.327 | 0.329 | 0.876 | 0.924 | 0.866 | 0.951 | 0.865 | 0.356 | 0.342 | 0.371 | 0.357 | 0.343 | 0.389 | 0.404 | 0.42 | 0.424 | 0.392
NCI-H1975 | 0.561 | 0.827 | 0.665 | 0.567 | 0.746 | 0.982 | 0.995 | 0.995 | 0.865 | 1.04 | 0.279 | 0.291 | 0.301 | 0.28 | 0.277 | 0.813 | 0.744 | 0.714 | 0.673 | 0.711
